Experimental findings from ChEMBL document CHEMBL6074659, “Development of an Intravenously Stable Disulfide-Rich Peptide for the Treatment of Chemotherapy-Induced Neuropathic Pain” (J Med Chem, 2024) are described below.

pIC50: −log10 of the molar value. Active and inactive are the calls of the source. The rule behind the calls is not given here. Residues, ends and D or L forms follow the SMILES beside them.

In data set [1] the target is T1, Neuronal acetylcholine receptor; alpha9/alpha10 (Homo sapiens, UniProt Q9GZZ6+Q9UGM1). The data set is described as follows: Antagonist activity at human alpha9alpha10 nAChR expressed in acetylcholine-induced Xenopus laevis oocytes assessed as inhibition of acetylcholine-induced current at -80 mV holding potential incubated for 5 mins by two electrode voltage-clamp assay. In kind it is cell-based, Oocyte.
T1 sequence (Q9UGM1 whole entry): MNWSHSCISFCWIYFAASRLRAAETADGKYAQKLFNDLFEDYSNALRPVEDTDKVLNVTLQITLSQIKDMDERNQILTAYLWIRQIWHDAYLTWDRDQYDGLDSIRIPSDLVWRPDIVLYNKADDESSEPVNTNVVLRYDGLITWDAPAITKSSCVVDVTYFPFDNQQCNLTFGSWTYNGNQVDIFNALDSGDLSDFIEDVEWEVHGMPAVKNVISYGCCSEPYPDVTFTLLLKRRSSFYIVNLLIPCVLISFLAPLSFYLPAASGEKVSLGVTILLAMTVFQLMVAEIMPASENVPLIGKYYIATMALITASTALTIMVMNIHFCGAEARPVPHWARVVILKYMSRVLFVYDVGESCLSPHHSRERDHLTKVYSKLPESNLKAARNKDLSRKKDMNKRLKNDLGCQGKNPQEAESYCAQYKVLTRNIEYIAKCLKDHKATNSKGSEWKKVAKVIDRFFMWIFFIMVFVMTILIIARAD
T1 sequence (Q9GZZ6 whole entry): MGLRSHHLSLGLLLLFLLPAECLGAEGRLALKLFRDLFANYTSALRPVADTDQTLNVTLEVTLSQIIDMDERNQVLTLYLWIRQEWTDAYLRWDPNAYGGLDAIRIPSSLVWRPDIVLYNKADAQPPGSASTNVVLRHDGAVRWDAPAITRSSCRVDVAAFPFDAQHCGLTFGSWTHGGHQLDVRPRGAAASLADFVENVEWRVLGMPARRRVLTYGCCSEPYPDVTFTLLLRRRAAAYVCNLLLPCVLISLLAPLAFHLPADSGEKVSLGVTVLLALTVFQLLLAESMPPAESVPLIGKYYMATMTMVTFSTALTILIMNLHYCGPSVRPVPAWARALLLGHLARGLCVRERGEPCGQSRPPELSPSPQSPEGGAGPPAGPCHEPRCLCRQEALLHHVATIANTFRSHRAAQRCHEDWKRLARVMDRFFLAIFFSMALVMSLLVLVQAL

Data set [2] addresses Neuronal acetylcholine receptor subunit alpha-7 (Homo sapiens, UniProt P36544). The data set is described as follows: Inhibition of human alpha7 nAChR assessed as reduction in acetylcholine-induced current incubated for 5 mins by two electrode voltage-clamp assay.
The target of data set [3] is Neuronal acetylcholine receptor; alpha3/beta2 (Homo sapiens, UniProt P17787+P32297). The data set is described as follows: Inhibition of human alpha3beta2 nAChR assessed as reduction in acetylcholine-induced current incubated for 5 mins by two electrode voltage-clamp assay. In kind it is protein-complex assay. A general note: In two-electrode clamp one electrode senses voltage and the other passes current.
Chain of Neuronal acetylcholine receptor; alpha3/beta2 (P17787 whole entry): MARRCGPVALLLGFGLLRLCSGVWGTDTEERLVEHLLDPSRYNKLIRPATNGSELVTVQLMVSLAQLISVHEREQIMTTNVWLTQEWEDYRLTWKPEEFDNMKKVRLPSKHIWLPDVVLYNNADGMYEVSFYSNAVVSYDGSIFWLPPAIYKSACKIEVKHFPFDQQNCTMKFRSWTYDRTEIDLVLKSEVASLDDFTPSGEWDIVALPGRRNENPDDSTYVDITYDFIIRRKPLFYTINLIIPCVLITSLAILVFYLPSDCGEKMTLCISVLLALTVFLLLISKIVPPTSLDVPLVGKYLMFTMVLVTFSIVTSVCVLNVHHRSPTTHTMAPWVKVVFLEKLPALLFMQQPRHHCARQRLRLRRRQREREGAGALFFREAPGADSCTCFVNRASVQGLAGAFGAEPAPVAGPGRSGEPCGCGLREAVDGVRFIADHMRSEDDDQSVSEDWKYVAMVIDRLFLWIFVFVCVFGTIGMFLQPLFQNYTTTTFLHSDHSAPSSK
Chain of Neuronal acetylcholine receptor; alpha3/beta2 (P32297 whole entry): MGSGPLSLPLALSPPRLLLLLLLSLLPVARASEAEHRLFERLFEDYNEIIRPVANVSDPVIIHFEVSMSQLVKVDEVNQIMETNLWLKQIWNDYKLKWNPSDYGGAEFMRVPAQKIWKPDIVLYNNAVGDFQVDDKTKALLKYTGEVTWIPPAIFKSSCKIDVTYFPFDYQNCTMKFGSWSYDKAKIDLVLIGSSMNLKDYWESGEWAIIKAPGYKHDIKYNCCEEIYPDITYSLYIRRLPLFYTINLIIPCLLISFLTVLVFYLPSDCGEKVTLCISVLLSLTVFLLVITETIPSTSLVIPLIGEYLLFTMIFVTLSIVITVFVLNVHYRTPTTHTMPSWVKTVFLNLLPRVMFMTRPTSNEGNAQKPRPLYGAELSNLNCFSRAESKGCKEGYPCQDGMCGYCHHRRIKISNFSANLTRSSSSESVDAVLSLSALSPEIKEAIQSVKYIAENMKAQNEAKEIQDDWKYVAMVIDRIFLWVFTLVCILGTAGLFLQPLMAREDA

The nature of data set [4]: Stability in human serum assessed as half life incubated upto 192 hrs by RP-HPLC analysis. It counts as ADME, cell-free.
Data set [5] concerns the target T2, Neuronal acetylcholine receptor; alpha4/beta4 (Homo sapiens) (UniProt P30926+P43681). Briefly: Inhibition of human alpha4beta4 nAChR assessed as reduction in acetylcholine-induced current at 10 nM incubated for 5 mins by two electrode voltage-clamp assay. It counts as protein-complex assay.
The subject of data set [6] is Rattus norvegicus. Briefly: Analgesic activity in Oxaliplatin-induced cold allodynia SPF male Sprague-Dawley rat assessed as reduction in pain-relieving effect by measuring acetone response score at 200 microg/kg, iv measured at 48 hrs. In kind it is functional, organism-based. The settings on record: dose 200.0 µg/kg.
Data set [7] in a line: Stability in human serum assessed as parent compound remaining incubated at 24 hrs by RP-HPLC analysis. In kind it is ADME, cell-free. The settings on record: for remaining at 24 h: human serum, read-out: Stability; for Stability: serum, 24 h.
The nature of data set [8]: Stability in human serum assessed as parent compound remaining incubated at 48 hrs by RP-HPLC analysis. In kind it is ADME, cell-free. The note with it: read-out: Stability.
Data set [9] concerns Rattus norvegicus. The data set is described as follows: Analgesic activity in Oxaliplatin-induced cold allodynia iv dosed SPF male Sprague-Dawley rat assessed as reduction in pain-relieving effect measured at 72 hrs. It counts as functional, organism-based. The settings on record: dose 500.0 µg/kg.
In data set [10] the target is Neuronal acetylcholine receptor; alpha3/beta4 (Homo sapiens) (UniProt P30926+P32297). The data set is described as follows: Inhibition of human alpha3beta4 nAChR assessed as reduction in acetylcholine-induced current at 10 to 100 nM incubated for 5 mins by two electrode voltage-clamp assay relative to control. The settings on record: dose 10-100 nM. It counts as protein-complex assay.

The target of data set [11] is T1, Neuronal acetylcholine receptor; alpha9/alpha10. The data set is described as follows: Inhibition of human alpha9alpha10 nAChR assessed as reduction in acetylcholine-induced current incubated for 5 mins by two electrode voltage-clamp assay. It counts as protein-complex assay.
Data set [12] is filed under the species Homo sapiens. Briefly: Inhibition of human alpha1beta1epsilondelta nAChR assessed as reduction in acetylcholine-induced current at 10 to 100 nM incubated for 5 mins by two electrode voltage-clamp assay relative to control. The settings on record: dose 10-100 nM.
The test system of data set [13] is Rattus norvegicus. The data set is described as follows: Analgesic activity in Oxaliplatin-induced cold allodynia SPF male Sprague-Dawley rat assessed as increase in latency at 200 microg/kg, iv measured at 72 hrs by cold plate test. The note with it: dose 200.0 µg/kg. It counts as functional, organism-based.
Data set [14] deals with Rattus norvegicus. Briefly: Analgesic activity in Oxaliplatin-induced cold allodynia SPF male Sprague-Dawley rat assessed as reduction in pain-relieving effect by measuring acetone response score at 50 microg/kg, iv measured at 48 hrs. In kind it is functional, organism-based. The note with it: dose 50.0 µg/kg.
Data set [15] deals with Rattus norvegicus. Briefly: Analgesic activity in Oxaliplatin-induced cold allodynia SPF male Sprague-Dawley rat assessed as latency time at 500 microg/kg, iv measured at 48 hrs by cold plate test. In kind it is functional. The settings on record: dose 500 µg/kg.
The species entered for data set [16] is Homo sapiens. The data set is described as follows: Inhibition of human alpha1beta1deltagamma nAChR assessed as reduction in acetylcholine-induced current at 10 to 100 nM incubated for 5 mins by two electrode voltage-clamp assay relative to control. The note with it: dose 10-100 nM.
In data set [17] the test system is Rattus norvegicus. Briefly: Analgesic activity in Oxaliplatin-induced cold allodynia SPF male Sprague-Dawley rat assessed as reduction in pain-relieving effect at 500 microg/kg, iv measured at 24 to 48 hrs. It counts as functional, organism-based. The note with it: dose 500.0 µg/kg, time 24-48 hrs.
Data set [18] concerns Rattus norvegicus. Briefly: Analgesic activity in Oxaliplatin-induced cold allodynia SPF male Sprague-Dawley rat assessed as increase in latency at 500 microg/kg, iv measured at 72 hrs by cold plate test. It counts as functional, organism-based. The note with it: dose 500.0 µg/kg.
Data set [19] addresses T2, Neuronal acetylcholine receptor; alpha4/beta4 (Homo sapiens). The data set is described as follows: Inhibition of human alpha4beta4 nAChR assessed as reduction in acetylcholine-induced current at 10 to 100 nM incubated for 5 mins by two electrode voltage-clamp assay relative to control. The settings on record: dose 10-100 nM. In kind it is protein-complex assay.
Data set [20] has the same target. Briefly: Inhibition of human alpha4beta4 nAChR assessed as reduction in acetylcholine-induced current at 100 nM incubated for 5 mins by two electrode voltage-clamp assay relative to control. It counts as protein-complex assay.
In data set [21] the target is Neuronal acetylcholine receptor; alpha9/alpha10 (Homo sapiens) (UniProt Q9UGM1+Q9GZZ6). The data set is described as follows: Antagonist activity at human alpha9alpha10 nAChR expressed in acetylcholine-induced Xenopus laevis oocytes assessed as inhibition of acetylcholine-induced current at 10 nM at -80 mV holding potential incubated for 5 mins by two electrode voltage-clamp assay relative to control. In kind it is cell-based. The settings on record: Oocyte, filed as antagonist.

A short description of data set [22]: Antagonist activity at rat alpha9alpha10 nAChR expressed in acetylcholine-induced Xenopus laevis oocytes assessed as inhibition of acetylcholine-induced current at -80 mV holding potential incubated for 5 mins by two electrode voltage-clamp assay. The note with it: Oocyte. It counts as cell-based.
Data set [23] relates to Rattus norvegicus. The data set is described as follows: Analgesic activity in Oxaliplatin-induced cold allodynia SPF male Sprague-Dawley rat assessed as reduction in pain-relieving effect at 500 microg/kg, iv measured at 1 to 24 hrs. In kind it is functional, organism-based. The settings on record: dose 500.0 µg/kg, time 1-24 hrs.
A short description of data set [24]: Stability in human serum assessed as half life incubated upto 48 hrs by RP-HPLC analysis. In kind it is ADME, cell-free.
The nature of data set [25]: Stability in human serum assessed as parent compound remaining incubated measured upto 48 hrs by RP-HPLC analysis. In kind it is ADME, cell-free.

Chain of Neuronal acetylcholine receptor subunit alpha-7 (P36544 whole entry): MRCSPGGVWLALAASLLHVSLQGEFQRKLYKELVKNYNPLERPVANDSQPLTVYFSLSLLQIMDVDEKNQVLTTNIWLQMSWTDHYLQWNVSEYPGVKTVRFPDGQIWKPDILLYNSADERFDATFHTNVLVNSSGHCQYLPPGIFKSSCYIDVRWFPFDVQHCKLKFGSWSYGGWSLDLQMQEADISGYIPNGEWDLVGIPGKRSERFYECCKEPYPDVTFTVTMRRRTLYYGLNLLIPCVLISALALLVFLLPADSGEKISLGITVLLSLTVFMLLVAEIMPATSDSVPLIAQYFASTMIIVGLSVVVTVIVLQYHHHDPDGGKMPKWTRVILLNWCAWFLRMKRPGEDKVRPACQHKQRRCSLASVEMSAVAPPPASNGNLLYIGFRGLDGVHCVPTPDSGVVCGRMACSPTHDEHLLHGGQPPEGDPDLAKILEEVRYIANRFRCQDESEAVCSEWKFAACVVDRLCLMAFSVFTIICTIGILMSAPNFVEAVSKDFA

Consider `CC[C@H](C)[C@@H]1NC(=O)[C@H](CC(=O)O)NC(=O)[C@@H]2CCCN2C(=O)[C@H](CC(N)=O)NC(=O)[C@H](CC(N)=O)NC(=O)[C@H](C(C)C)NC(=O)[C@H](CO)NC(=O)[C@@H]2CSSC[C@H](NC(=O)CN)C(=O)N[C@@H](CSSC(C)(C)[C@@H](C(N)=O)NC1=O)C(=O)N[C@@H](CN)C(=O)N[C@@H](Cc1cnc[nH]1)C(=O)N1CCC[C@H]1C(=O)N[C@@H](C)C(=O)N2` (HELM PEPTIDE1{G.C.C.[NC[C@H](N[*:1])C(=O)[*:2]].H.P.A.C.S.V.N.N.P.D.I.[Pen].[am]}$PEPTIDE1,PEPTIDE1,2:R3-8:R3|PEPTIDE1,PEPTIDE1,3:R3-16:R3$$$V2.0), for which the pIC50 in [1] was 8.40; in [2] it was 6.88; in data set [3], 7.66; in data set [11] it was 8.39. The half-life in data set [4] was 142 h. Moreover, the inhibition entry in data set [5] was “inactive”. Moreover, the outcome with Rattus norvegicus [6], with Rattus norvegicus [13], in the data set with Rattus norvegicus [17] and in the data set with Rattus norvegicus [18] was Active. Besides, in data set [7], the remaining at 24 h amounted to 90%. Also, the remaining at 48 h in data set [8] is 85%. Besides, the Activity result with Rattus norvegicus [9] is “Dose-dependent-effect”. Further, the inhibition in data set [10] is under 1%; in the data set listed under Homo sapiens [12], under 1%; in the data set filed under Homo sapiens [16], under 1%; in data set [19], under 1%; in data set [20], 20%. In addition, in the data set on Rattus norvegicus [14], the outcome was inactive. Moreover, the Time in the data set with Rattus norvegicus [15] came out at 140 s.
As to `CC[C@H](C)[C@@H]1NC(=O)[C@H](CC(=O)O)NC(=O)[C@@H]2CCCN2C(=O)[C@H](CC(N)=O)NC(=O)[C@H](CC(N)=O)NC(=O)[C@H](C(C)C)NC(=O)[C@H](CO)NC(=O)[C@@H]2CSSC[C@H](NC(=O)CN)C(=O)N[C@H](C(=O)N[C@@H](CN)C(=O)N[C@@H](Cc3cnc[nH]3)C(=O)N3CCC[C@H]3C(=O)N[C@@H](C)C(=O)N2)C(C)(C)SSC[C@@H](C(N)=O)NC1=O` (HELM PEPTIDE1{G.C.[Pen].[NC[C@H](N[*:1])C(=O)[*:2]].H.P.A.C.S.V.N.N.P.D.I.C.[am]}$PEPTIDE1,PEPTIDE1,2:R3-8:R3|PEPTIDE1,PEPTIDE1,3:R3-16:R3$$$V2.0), the figures for the pIC50 in data set [1] and in data set [22] were 8.00 and 8.57, respectively. Further, in data set [21], the inhibition came to 50%. Besides, the remaining at 24 h in data set [7] stood at 80%. Besides, the remaining at 48 h in data set [8] came to 60%.
Consider `CC[C@H](C)[C@H](NC(=O)[C@H](CC(=O)O)NC(=O)[C@@H]1CCCN1C(=O)[C@H](CC(N)=O)NC(=O)[C@H](CC(N)=O)NC(=O)[C@@H](NC(=O)[C@H](CO)NC(=O)[C@H](CS)NC(=O)[C@H](C)NC(=O)[C@@H]1CCCN1C(=O)[C@H](Cc1cnc[nH]1)NC(=O)[C@H](CN)NC(=O)[C@H](CS)NC(=O)[C@H](CS)NC(=O)CN)C(C)C)C(=O)N[C@@H](CS)C(N)=O` (HELM PEPTIDE1{G.C.C.[NC[C@H](N[*:1])C(=O)[*:2]].H.P.A.C.S.V.N.N.P.D.I.C.[am]}$$$$V2.0), for which the pIC50 was 8.40 in data set [1], 6.69 in [2], 7.69 in data set [3] and 8.40 in data set [11]. Besides, in data set [21], the inhibition is 80%. Moreover, the remaining at 24 h in [7] worked out at 58.6%. Also, in data set [7], the Stability is 57.3%. Besides, in [8], the remaining at 48 h is under 30%. For the same compound, the outcome in the data set with Rattus norvegicus [23] and with Rattus norvegicus [13] was Active. In [24], the half-life is 26.2 h.
`CC[C@H](C)[C@@H]1NC(=O)[C@H](CC(=O)O)NC(=O)[C@@H]2CCCN2C(=O)[C@H](CC(N)=O)NC(=O)[C@H](CC(N)=O)NC(=O)[C@H](C(C)C)NC(=O)[C@H](CO)NC(=O)[C@@H]2CSSC[C@@H]3NC(=O)CNC(=O)[C@@H](N)CC(=O)NCC[C@@H](C(N)=O)NC(=O)[C@H](CSSC[C@H](NC3=O)C(=O)N[C@@H](CN)C(=O)N[C@@H](Cc3cnc[nH]3)C(=O)N3CCC[C@H]3C(=O)N[C@@H](C)C(=O)N2)NC1=O` (HELM PEPTIDE1{D.G.C.C.[NC[C@H](N[*:1])C(=O)[*:2]].H.P.A.C.S.V.N.N.P.D.I.C.[Dab].[am]}$PEPTIDE1,PEPTIDE1,1:R3-18:R3|PEPTIDE1,PEPTIDE1,3:R3-9:R3|PEPTIDE1,PEPTIDE1,4:R3-17:R3$$$V2.0): the pIC50 in data set [1] was 8.48. The inhibition in [21] was found to be 90%. Besides, the remaining at 24 h in data set [7] was determined as 64.6%. Also, the Stability entry in data set [25] is recorded as “Stable”.
In the case of `CC[C@H](C)[C@@H]1NC(=O)[C@H](CC(=O)O)NC(=O)[C@@H]2CCCN2C(=O)[C@H](CC(N)=O)NC(=O)[C@H](CC(N)=O)NC(=O)[C@H](C(C)C)NC(=O)[C@H](CO)NC(=O)[C@@H]2CSSC[C@@H]3NC(=O)CNC(=O)[C@@H](N)CC(=O)NC[C@@H](C(N)=O)NC(=O)[C@H](CSSC[C@H](NC3=O)C(=O)N[C@@H](CN)C(=O)N[C@@H](Cc3cnc[nH]3)C(=O)N3CCC[C@H]3C(=O)N[C@@H](C)C(=O)N2)NC1=O` (HELM PEPTIDE1{D.G.C.C.[NC[C@H](N[*:1])C(=O)[*:2]].H.P.A.C.S.V.N.N.P.D.I.C.[O=C([C@H](CN[*:3])N[*:1])[*:2]].[am]}$PEPTIDE1,PEPTIDE1,1:R3-18:R3|PEPTIDE1,PEPTIDE1,3:R3-9:R3|PEPTIDE1,PEPTIDE1,4:R3-17:R3$$$V2.0), the pIC50 in data set [1] was 8.49. For the same compound, the inhibition in data set [21] came to 90%. In addition, in data set [7], the remaining at 24 h worked out at 57.3% and the Stability is given as 72.4%. Moreover, in [25], the Stability result is listed as “Stable”.

The term pIC50 denotes −log10 of the IC50, conventionally taken in molar units. The term half-life denotes how long it takes for the measured level to halve. Broadly, the inhibition is the drop in the measured response relative to a control, in per cent.
